Key:
[1] = test system: Gp-Ia organisms (Gram-positive staphylococci sensitive to penicillin); test: In vitro activity, agar dilution, group of five strains; type: cell-based
Source text: (§1) Each of these groups of organisms is constituted of five individual strains of microorganism. The Gp-Ia organisms are Gram-positive staphylococci which are sensitive to penicillin. The Gp-Ib organisms are Gram-positive staphylococci which are resistant to penicillin and produce penicillinase. The Gn-Ia organisms are Gram-negative bacteria which are sensitive to ampicillin and cephalothin. The Gn-Ib organisms are Gram-negative bacteria which are resistant to ampicillin and cephalothin.

[2] = test system: Gp-Ib organisms (Gram-positive staphylococci resistant to penicillin); test: as above; type: cell-based
Source text: as §1

fastidious bacteria = test: In vitro antibacterial activity against fastidious bacteria (overall); type: cell-based
Source text: Table 5 contains comparative data for in vitro antibacterial activity against fastidious bacteria.

[3] = test system: S. aureus Smith and E. coli Juhl; test: Protective effect in mice infected with a lethal inoculum (overall); type: in vivo
Source text: The data in Table 2 are results of protective doses (PD50) for mice infected with a lethal inoculum of bacteria. Two different bacteria were employed in the studies, one a Gram-positive organism (S. aureus Smith) and the other a Gram-negative organism (E. coli Juhl). The PD50 is that dose which, when administered to a group of injected mice, results in 50% survival after five days. Normally untreated infected mice die within three days following injection of the lethal inoculum.

Structure (SMILES): C/C=C\C1=C(C(=O)O)N2C(=O)C(NC(=O)[C@H](N)c3cccc(O)c3)[C@H]2SC1 (stereo partly shown) [BMY-28272, 7-[(D)-2-amino-2-(3-hydroxyphenyl)acetamido]-3-[(Z)-1-propenyl]-3-cephem-4-carboxylic acid]
- activity relative to BMY-28100 [1]: same as BMY-28100
- activity relative to cephalexin and cefaclor [1]: two or four times more active than cephalexin and cefaclor
- activity relative to BMY-28100 [2]: slightly less active than BMY-28100
- activity relative to cephalexin or cefaclor [2]: three times more active than cephalexin or cefaclor
- activity relative to BMY-28100 (fastidious bacteria): almost comparable or better than BMY-28100
- activity relative to cefaclor or cephalexin (fastidious bacteria): much better than cefaclor or cephalexin
- effectiveness in vivo [3]: effectiveness of BMY-28272 in vivo is confirmed

Source: US4619925A, “3-Propenyl cephalosporin derivatives” (priority 1985, dated 1986)
